From PMC11012124, “Synthesis of Novel Triazine-Based Chalcones and 8,9-dihydro-7H-pyrimido[4,5-b][1,4]diazepines as Potential Leads in the Search of Anticancer, Antibacterial and Antifungal Agents” (International Journal of Molecular Sciences, 2024)
Values after ≈ are worked out from the molar mass of the structure shown. Read-outs that look alike come from different tables or passages of the source.

Legend:
60 cancer cell lines = assay: NCI-60 one-dose screen (10 μM); assay type: cell-based; details: Homo sapiens; one dose of 10 μM, mean over 60 cancer cell lines; read-out: Mean Growth Percent (MGP)
From the text: Additionally, the mean of the growth percentages (MGP) of each compound against all the 60 cancer cell lines is also reported, which is used as one of the selection criteria to continue with tests at five concentration doses.

[1] = tested on: N. gonorrhoeae ATCC 49226; assay: MIC on GC agar plates; assay type: cell-based, Neisseria gonorrhoeae
Procedure: An initial screening for bacterial inhibition was performed by the agar diffusion method. […] DMSO and TSB were included as negative controls. Gentamicin and trimethoprim sulfamethoxazole were included as a positive control for growth inhibition. Derivatives showing growth inhibition were tested at least twice before being selected for the microdilution test. For N. gonorrhoeae, the agar diffusion method was also used for screening with some modifications. […] Penicillin and tetracycline were used as controls. […] Briefly, GC agar supplemented with 1% isovitalex was prepared with increasing concentrations of the new compounds and inoculated with 10 µL of a bacterial suspension (1 × 10^4 CFU). The lowest concentration of the compound that inhibited bacterial growth was determined as the MIC. Bacterial growth was examined and verified using the oxidase test. The experiments were performed in duplicate in at least two independent assays.

[2] = tested on: M. tuberculosis ATCC 27294; assay: Antitubercular broth microdilution MIC; assay type: cell-based; details: Mycobacterium tuberculosis; M. tuberculosis ATCC 27294 (H37Rv); read-out: Minimum inhibitory concentration (MIC)
A. flavus (ATCC 9170) = assay: Antifungal broth microdilution (CLSI); assay type: cell-based; details: ATCC9170; Afl: Aspergillus flavus
Procedure: (§1) Several of the obtained triazine derivatives were evaluated against sensitive fungal species comprising of two yeasts (Candida albicans (ATCC 10231), Cryptococcus neoformans (ATCC 32264)), three dermatophytes (Microsporum gypseum (CCC 115), Trichophyton rubrum (CCC 134-2000), Trichophyton mentagrophytes (CCC 202-2000)), and three Aspergillus fungi ((A. [NT] 26934), A. niger (ATCC 9029), and A. flavus (ATCC 9170)). […] Broth microdilution techniques were performed in 96-well microplates according to the Reference Method for Broth Dilution Antifungal Susceptibility Testing of Yeasts, document M27-A3 [86] and of Filamentous Fungi […]-A8 [87]. […] An inoculum suspension (100 μL) was added to each well (final well volume = 200 μL). One growth control well (containing medium, inoculum, and the same amount of DMSO as used for each compound) and one sterility control well (sample, medium, and sterile water instead of inoculum) were included for each fungus tested. Microtiter plates were incubated in a dark, humid chamber at 30 °C for the time necessary for each fungus. Amphotericin B, Terbinafine, Fluconazole and Itraconazole were used as a positive control. The tests were performed in triplicate.

[3] = tested on: A. fumigatus (ATCC 26934); assay: Antifungal broth microdilution (CLSI); assay type: cell-based; details: ATCC26934; Afu: Aspergillus fumigatus
Procedure: as §1

A. niger (ATCC 9029) = assay: Antifungal broth microdilution (CLSI); assay type: cell-based; details: ATCC9029; Ani: Aspergillus niger
Procedure: as §1

[4] = tested on: Candida albicans (ATCC 10231); assay: Antifungal broth microdilution (CLSI); assay type: cell-based; details: ATCC10231; Ca: Candida albicans
Procedure: as §1

[5] = tested on: Cryptococcus neoformans (ATCC 32264); assay: Antifungal broth microdilution (CLSI); assay type: cell-based; details: ATCC32264; Cn: Cryptococcus neoformans
Procedure: as §1

[6] = tested on: Microsporum gypseum (CCC 115); assay: Antifungal broth microdilution (CLSI); assay type: cell-based; details: Nannizzia gypsea; Mg: Microsporum gypseum
Procedure: as §1

[7] = tested on: Trichophyton mentagrophytes (CCC 202-2000); assay: Antifungal broth microdilution (CLSI); assay type: cell-based; details: Tm: Trichophyton mentagrophytes
Procedure: as §1

[8] = tested on: Trichophyton rubrum (CCC 134-2000); assay: Antifungal broth microdilution (CLSI); assay type: cell-based; details: Tr: Trichophyton rubrum
Procedure: as §1

[9] = Hemolytic activity, spectrophotometric; assay type: cell-based, human; details: human, human red blood cells (huRBC), 5% hematocrit, 200 μg/mL, 37 °C
[10] = tested on: human red blood cells (huRBC); assay: Hemolytic activity, spectrophotometric; assay type: cell-based; details: 200 μg/mL, 24 h, 37 °C
MOLT-4 = assay: cells; details: Homo sapiens, MOLT-4, 48 h
HCT-116 = assay: cells; details: Homo sapiens, HCT-116, 48 h
CAKI-1 = assay: cells; details: Homo sapiens, CAKI-1, 48 h
RXF 393 = assay: cells; details: Homo sapiens, RXF 393, 48 h
[11] = tested on: N. gonorrhoeae ATCC 49226; details: control drugs, range in parenthesis; cited from earlier work
S. aureus ATCC 43300 [12] = assay: Antibacterial MIC, microdilution; assay type: cell-based; details: Staphylococcus aureus; S. aureus ATCC 43300 (MRSA)
S. aureus ATCC 43300 [13] = details: tetracycline; cited from earlier work
Galleria mellonella = assay: Toxicity in the Galleria mellonella model; details: G. mellonella larvae, at the higher doses
Procedure: G mellonella larvae were cultivated in the laboratory and healthy, beige larvae weighing 150–200 mg, were selected for toxicity assays.

AChE = tested on: AChE; set-up: method as in PMID 34795867, PMID 35252706, doi:10.1016/j.molstruc.2021.132275, PMID 18811208, doi:10.1016/j.molstruc.2022.132498; details: cited from earlier work
[14] = tested on: Mycobacterium tuberculosis H37Rv; set-up: method as in PMID 34795867, PMID 35252706, doi:10.1016/j.molstruc.2021.132275, PMID 18811208, doi:10.1016/j.molstruc.2022.132498; details: cited from earlier work
[15] = Neisseria gonorrhoeae, ATCC49226, read-out: MIC

| Compound | activity at 10 µM (60 cancer cell lines) | MIC [1, 15] | MIC [2] | MIC (A. flavus (ATCC 9170)) | MIC [3] | MIC (A. niger (ATCC 9029)) | MIC [4] | MIC [5] | MIC [6] | MIC [7] | MIC [8] | hemolysis at 24 h, 200 µg/mL [9] | further results |
| --- | --- | --- | --- | --- | --- | --- | --- | --- | --- | --- | --- | --- | --- |
| COc1ccc(C2=Nc3c(N)nc(N)nc3NC(c3ccc(Oc4nc(Nc5ccc(F)cc5)nc(N(C)C)n4)c(OC)c3)C2)cc1 (centres unmarked) [29c] | 64.2% | 62.5 µg/mL (≈ 98 µM) | 1.2 µg/mL (≈ 1.88 µM) | > 250 µg/mL | > 250 µg/mL | > 250 µg/mL | > 250 µg/mL | > 250 µg/mL | 125 µg/mL (≈ 196 µM) | > 250 µg/mL | > 250 µg/mL | 2.9% | – |
| COc1cc(C2CC(c3ccc(F)cc3)=Nc3c(N)nc(N)nc3N2)ccc1Oc1nc(Nc2ccc(F)cc2)nc(N(C)C)n1 (centres unmarked) [29f] | 45.2% | 0.5 µg/mL (≈ 0.799 µM) | 2.5 µg/mL (≈ 4 µM) | > 250 µg/mL | > 250 µg/mL | > 250 µg/mL | > 250 µg/mL | > 250 µg/mL | 125 µg/mL (≈ 200 µM) | > 250 µg/mL | > 250 µg/mL | 0% | – |
| COc1cc(C2CC(c3ccc(C(F)(F)F)cc3)=Nc3c(N)nc(N)nc3N2)ccc1Oc1nc(NCCO)nc(N2CCOCC2)n1 (centres unmarked) [28g] | 99.4% | 8 µg/mL (≈ 12 µM) | – | – | – | – | – | – | – | – | – | – | % Hemolysis [10]: 100% |
| COc1cc(C2CC(c3cc(OC)c(OC)c(OC)c3)=Nc3c(N)nc(N)nc3N2)ccc1Oc1nc(Nc2ccc(F)cc2)nc(N(C)C)n1 (centres unmarked) [29d] | 54.5% | 16.1 µg/mL (≈ 23.1 µM) | 5 µg/mL (≈ 7.17 µM) | – | – | – | – | – | – | – | – | > 75% | % Hemolysis [10]: 75% |
| COc1cc(C2CC(c3ccc(C(F)(F)F)cc3)=Nc3c(N)nc(N)nc3N2)ccc1Oc1nc(Nc2ccc(F)cc2)nc(N(C)C)n1 (centres unmarked) [29g] | 40.9% | ≥ 500 µg/mL | 5 µg/mL (≈ 7.4 µM) | > 250 µg/mL | > 250 µg/mL | > 250 µg/mL | > 250 µg/mL | > 250 µg/mL | 125 µg/mL (≈ 185 µM) | > 250 µg/mL | > 250 µg/mL | – | GI50 (MOLT-4): 1710 nM; CC50 (MOLT-4; read-out: LC50): > 100000 nM; GI50 (HCT-116): 1760 nM; CC50 (HCT-116; read-out: LC50): 7560 nM; GI50 (CAKI-1): 1650 nM; CC50 (CAKI-1; read-out: LC50): > 100000 nM; GI50 (RXF 393): 1220 nM; CC50 (RXF 393; read-out: LC50): 34100 nM |
| Penicillin [reference compound] | – | – | – | – | – | – | – | – | – | – | – | – | MIC [1]: 0.25 µg/mL; MIC range values for this strain [11]: 0.25 to 1.0 µg/mL |
| CN(C)[C@@H]1C(O)=C(C(N)=O)C(=O)[C@@]2(O)C(O)=C3C(=O)c4c(O)cccc4[C@@](C)(O)[C@H]3C[C@@H]12 [Tetracycline, reference compound] | – | 1 µg/mL (≈ 2.25 µM) | – | – | – | – | – | – | – | – | – | – | MIC (S. aureus ATCC 43300 [12]): 0.05 µg/mL (≈ 0.113 µM); MIC range (S. aureus ATCC 43300 [13]): 0.05 to 0.25 µg/mL; MIC range values for this strain [11]: 0.25 to 1.0 µg/mL |
| COc1cc(C2CC(c3ccc(S(=O)(=O)NCCNc4nc(N(C)C)nc(N5CCOCC5)n4)cc3)=Nc3c(N)nc(N)nc3N2)cc(OC)c1OC (centres unmarked) [30d] | 95% | 16.1 µg/mL (≈ 21.5 µM) | – | > 250 µg/mL | > 250 µg/mL | > 250 µg/mL | > 250 µg/mL | > 250 µg/mL | > 250 µg/mL | > 250 µg/mL | 125 µg/mL (≈ 167 µM) | 11% | mortality (Galleria mellonella): ≤ 25% |
| CN(c1nc(Cl)nc(N2CCN(Cc3nc4ccccc4[nH]3)CC2)n1)C1CCCCC1 [compound 2] | – | – | – | – | – | – | – | – | – | – | – | – | IC50 (AChE): 44 nM |
| C[C@@H]1[C@H](O)[C@@H](C)/C=C/C=C/C=C/C=C/C=C/C=C/C=C/[C@H](O[C@@H]2O[C@H](C)[C@@H](O)[C@H](N)[C@@H]2O)C[C@@H]2O[C@](O)(C[C@@H](O)C[C@@H](O)[C@H](O)CC[C@@H](O)C[C@@H](O)CC(=O)O[C@H]1C)C[C@H](O)[C@H]2C(=O)O [Amphotericin B, reference compound] | – | – | – | 0.5 µg/mL (≈ 0.541 µM) | 0.5 µg/mL (≈ 0.541 µM) | 0.5 µg/mL (≈ 0.541 µM) | 0.5 µg/mL (≈ 0.541 µM) | 0.25 µg/mL (≈ 0.271 µM) | 0.125 µg/mL (≈ 0.135 µM) | 0.075 µg/mL (≈ 0.0812 µM) | 0.075 µg/mL (≈ 0.0812 µM) | – | – |
| O=C(/C=C/c1ccc(F)cc1F)c1ccc(Nc2nc(Cl)nc(Cl)n2)cc1 [compound 3] | – | – | – | – | – | – | – | – | – | – | – | – | MIC [14]: 3.125 µg/mL (≈ 7.67 µM) |
| CC(=O)c1ccc(S(=O)(=O)NCCNc2nc(N(C)C)nc(N3CCOCC3)n2)cc1 [compound 17] | 108% | – | – | > 250 µg/mL | > 250 µg/mL | > 250 µg/mL | > 250 µg/mL | > 250 µg/mL | > 250 µg/mL | > 250 µg/mL | 125 µg/mL (≈ 278 µM) | 1.6% | – |
